Read-outs that look alike come from different tables or passages of the source.
Legend:
Assay type in all cases: cell-based, human
HL-60 (TB) = experiment: SRB anticancer assay, leukemia; conditions: Homo sapiens, HL-60, 48 h
K-562 = experiment: SRB anticancer assay, leukemia; conditions: Homo sapiens, K562; K-562, 48 h
HCT-116 = experiment: SRB anticancer assay, colon; conditions: Homo sapiens, HCT-116, 48 h
SW-620 = experiment: SRB anticancer assay, colon; conditions: Homo sapiens, SW-620, 48 h
SNB-19 = experiment: SRB anticancer assay, CNS; conditions: Homo sapiens, SNB-19, 48 h
SNB-75 = experiment: SRB anticancer assay, CNS; conditions: Homo sapiens, SNB-75, 48 h
U251 = experiment: SRB anticancer assay, CNS; conditions: Homo sapiens, U-251; U251, 48 h
OVCAR-5 = experiment: SRB anticancer assay, ovarian; conditions: Homo sapiens, OVCAR-5, 48 h
786-0 = experiment: SRB anticancer assay, renal; conditions: Homo sapiens, 786-0, 48 h
UO-31 = experiment: SRB anticancer assay, renal; conditions: Homo sapiens, UO-31, 48 h
DU-145 = experiment: SRB anticancer assay, prostate; conditions: Homo sapiens, DU-145, 48 h
MDA-MB-231/ATCC = experiment: SRB anticancer assay, breast; conditions: Homo sapiens, MDA-MB-231, 48 h, MDA-MB-231/ATCC (row head MDA-MB-), 48 h; read-out: GI50
BT-549 = experiment: SRB anticancer assay, breast; conditions: Homo sapiens, BT-549, 48 h
MALME-3M = experiment: SRB anticancer assay, melanoma; conditions: Homo sapiens, Malme-3M, 48 h
SK-MEL-2 = experiment: SRB anticancer assay, melanoma; conditions: Homo sapiens, SK-MEL-2, 48 h
Breast cancer cell lines = experiment: SRB anticancer assay, panel result
Procedure: (§1) The compounds were evaluated for anticancer activity against sixty human cancer cells derived from nine cancer types (leukemia cell line, non-small-cell lung cell line, colon cell line, CNS cell line, melanoma cell line, ovarian cell line, prostate cell line, renal cancer cell line and breast cancer cell line) as shown in Table 1. For each compound, dose response curves for each cell line were measured at a minimum of five concentrations at 10 fold dilutions. A protocol of 48 h continuous drug exposure was used and a sulforhodamine B (SRB) protein assay was used to estimate cell viability or growth.

CNS cancer cell lines = experiment: SRB anticancer assay, panel result
Procedure: as §1

Colon cancer cell lines = experiment: SRB anticancer assay, panel result
Procedure: as §1

[1] = tested on: Leukemia cancer cell lines; experiment: SRB anticancer assay, panel result
Procedure: as §1

[2] = tested on: Melanoma cancer cell lines; experiment: SRB anticancer assay, panel result
Procedure: as §1

[3] = tested on: Non-small cell lung cancer cell lines; experiment: SRB anticancer assay, panel result
Procedure: as §1

[4] = tested on: Ovarian cancer cell lines; experiment: SRB anticancer assay, panel result
Procedure: as §1

[5] = tested on: Prostate cancer cell lines; experiment: SRB anticancer assay, panel result
Procedure: as §1

Renal cancer cell lines = experiment: SRB anticancer assay, panel result
Procedure: as §1

`COc1cc(OC)c2sc(-c3ccc(-n4cncc4-c4ccc(OC)c(OC)c4)cc3)nc2c1` [Compound 6e, 2-(4-(5-(3,4-Dimethoxyphenyl)-1H-imidazol-1-yl)phenyl)-5,7-dimethoxybenzo[d]thiazole] was tested, and the GI50 (HL-60 (TB)) was 3.09 µM, the GI50 (K-562) was 5.88 µM and the GI50 (HCT-116) was 5.48 µM. For the same compound, the GI50 (SW-620) was greater than 100 µM, the GI50 (SNB-19) was greater than 100 µM and the GI50 (SNB-75) was 7.21 µM. For the same compound, the GI50 (U251) was 9.19 µM, the GI50 (OVCAR-5) was greater than 100 µM and the GI50 (786-0) was greater than 100 µM. It also gave a GI50 (UO-31) of 31.7 µM, a GI50 (DU-145) of 27.9 µM and a GI50 (MDA-MB-231/ATCC) of 28.4 µM. It also gave a GI50 (BT-549) of 3.78 µM, a GI50 (MALME-3M) of 59.8 µM and a GI50 (SK-MEL-2) of 41.4 µM. The “mean graph midpoint value (MG_MID) of log10 TGI” value (Breast cancer cell lines; Breast panel, total inhibition of net cell growth) was greater than −4.0, the CC50 (Breast cancer cell lines; Homo sapiens, Breast panel, 50% net cell death, read-out: mean graph midpoint value (MG_MID) of Log10 LC50 (converted)) was greater than 100 µM and the GI50 (Breast cancer cell lines; Homo sapiens, Breast panel, read-out: mean graph midpoint value (MG_MID) of Log10 GI50 (converted)) was 7.41 µM. For the same compound, the GI50 (Breast cancer cell lines; Homo sapiens, six breast cancer cell lines, exposure at least 48 h, read-out: GI50, range over the panel) was 3.78 to 28.4 µM, the “mean graph midpoint value (MG_MID) of log10 TGI” value (CNS cancer cell lines; CNS panel, total inhibition of net cell growth) was −4.06 and the CC50 (CNS cancer cell lines; Homo sapiens, CNS panel, 50% net cell death, read-out: mean graph midpoint value (MG_MID) of Log10 LC50 (converted)) was greater than 100 µM. For the same compound, the GI50 (CNS cancer cell lines; Homo sapiens, CNS panel, read-out: mean graph midpoint value (MG_MID) of Log10 GI50 (converted)) was 19.1 µM, the GI50 (CNS cancer cell lines; Homo sapiens, six CNS cancer cell lines, exposure at least 48 h, read-out: GI50, range over the panel) was 7 to 9.96 µM and the “mean graph midpoint value (MG_MID) of log10 TGI” value (Colon cancer cell lines; Colon panel, total inhibition of net cell growth) was greater than −4.0. It also gave an LC50 (Colon cancer cell lines; Homo sapiens, Colon panel, 50% net cell death, read-out: mean graph midpoint value (MG_MID) of Log10 LC50 (converted)) greater than 100 µM, a GI50 (Colon cancer cell lines; Homo sapiens, Colon panel, read-out: mean graph midpoint value (MG_MID) of Log10 GI50 (converted)) of 25.1 µM and a GI50 (Colon cancer cell lines; Homo sapiens, seven colon cancer cell lines, exposure at least 48 h, read-out: GI50, range over the panel) of 5.48 to 7.13 µM. It also gave an LC50 ([1]; Homo sapiens, Leukemia panel, 50% net cell death, read-out: mean graph midpoint value (MG_MID) of Log10 LC50 (converted)) greater than 100 µM, a GI50 ([1]; Homo sapiens, Leukemia panel, read-out: mean graph midpoint value (MG_MID) of Log10 GI50 (converted)) of 16.2 µM and a GI50 ([1]; Homo sapiens, six leukemia cancer cell lines, exposure at least 48 h, read-out: GI50, range over the panel) of 3.03 to 5.88 µM. For the same compound, the “mean graph midpoint value (MG_MID) of log10 TGI” value ([1]; Leukemia panel, total inhibition of net cell growth) was greater than −4.0, the LC50 ([2]; Homo sapiens, Melanoma panel, 50% net cell death, read-out: mean graph midpoint value (MG_MID) of Log10 LC50 (converted)) was greater than 100 µM and the GI50 ([2]; Homo sapiens, Melanoma panel, read-out: mean graph midpoint value (MG_MID) of Log10 GI50 (converted)) was 40.7 µM. The GI50 ([2]; Homo sapiens, nine melanoma cancer cell lines, exposure at least 48 h, read-out: GI50, range over the panel) was 3.61 to 59.8 µM, the “mean graph midpoint value (MG_MID) of log10 TGI” value ([2]; Melanoma panel, total inhibition of net cell growth) was greater than −4.0 and the LC50 ([3]; Homo sapiens, Non-small cell lung panel, 50% net cell death, read-out: mean graph midpoint value (MG_MID) of Log10 LC50 (converted)) was greater than 100 µM. For the same compound, the GI50 ([3]; Homo sapiens, Non-small cell lung panel, read-out: mean graph midpoint value (MG_MID) of Log10 GI50 (converted)) was 22.9 µM, the GI50 ([3]; Homo sapiens, nine Non-small cell lung cancer cell lines, exposure at least 48 h, read-out: GI50, range over the panel) was 5.26 to 41.8 µM and the “mean graph midpoint value (MG_MID) of log10 TGI” value ([3]; Non-small cell lung panel, total inhibition of net cell growth) was −4.01. It also gave an LC50 ([4]; Homo sapiens, Ovarian panel, 50% net cell death, read-out: mean graph midpoint value (MG_MID) of Log10 LC50 (converted)) greater than 100 µM, a GI50 ([4]; Homo sapiens, Ovarian panel, read-out: mean graph midpoint value (MG_MID) of Log10 GI50 (converted)) of 29.5 µM and a GI50 ([4]; Homo sapiens, seven ovarian cancer cell lines, exposure at least 48 h, read-out: GI50, range over the panel) of 3.85 to 56.1 µM. The “mean graph midpoint value (MG_MID) of log10 TGI” value ([4]; Ovarian panel, total inhibition of net cell growth) was greater than −4.0, the LC50 ([5]; Homo sapiens, Prostate panel, 50% net cell death, read-out: mean graph midpoint value (MG_MID) of Log10 LC50 (converted)) was greater than 100 µM and the GI50 ([5]; Homo sapiens, Prostate panel, read-out: mean graph midpoint value (MG_MID) of Log10 GI50 (converted)) was 10.2 µM. For the same compound, the GI50 ([5]; Homo sapiens, two prostate cancer cell lines (PC-3, DU-145), exposure at least 48 h, read-out: GI50, range over the panel) was 3.66 to 27.9 µM, the “mean graph midpoint value (MG_MID) of log10 TGI” value ([5]; Prostate panel, total inhibition of net cell growth) was greater than −4.0 and the CC50 (Renal cancer cell lines; Homo sapiens, Renal panel, 50% net cell death, read-out: mean graph midpoint value (MG_MID) of Log10 LC50 (converted)) was greater than 100 µM. For the same compound, the GI50 (Renal cancer cell lines; Homo sapiens, Renal panel, read-out: mean graph midpoint value (MG_MID) of Log10 GI50 (converted)) was 25.1 µM, the GI50 (Renal cancer cell lines; Homo sapiens, eight renal cancer cell lines, exposure at least 48 h, read-out: GI50, range over the panel) was 2.15 to 3.17 µM and the “mean graph midpoint value (MG_MID) of log10 TGI” value (Renal cancer cell lines; Renal panel, total inhibition of net cell growth) was greater than −4.0.

From patent publication US9187467B2, “2-phenyl benzothiazole linked imidazole compounds as potential anticancer agents and process for the preparation thereof” (Council of Scientific and Industrial Research, priority 2012, dated 2015)
